Assays:
[1] = Drug excretion in F344/DuCrlCrlj rat urine at 1 mg/kg, iv administered via tail vein measured during 0 to 48 hrs by liquid scintillation counting; format: ADME, organism-based; design: dose 1 mg/kg, dosed compound name [14C]Rivoglitazone, route intravenous; details: in vivo
[2] = Drug excretion in F344/DuCrlCrlj rat feces at 1 mg/kg, iv administered via tail vein measured during 0 to 48 hrs by liquid scintillation counting; format: ADME, organism-based; design: dose 1 mg/kg, dosed compound name [14C]Rivoglitazone, route intravenous; details: in vivo
Rattus norvegicus [3] = assay: Total drug excretion in F344/DuCrlCrlj rat at 1 mg/kg, iv administered via tail vein measured during 0 to 48 hrs by liquid scintillation counting; format: ADME, organism-based; design: dose 1 mg/kg, dosed compound name [14C]Rivoglitazone, route intravenous; details: in vivo
[4] = Drug excretion in F344/DuCrlCrlj rat urine at 1 mg/kg, iv administered via tail vein measured during 0 to 168 hrs by liquid scintillation counting; format: ADME, organism-based; design: dose 1 mg/kg, dosed compound name [14C]Rivoglitazone, route intravenous; details: in vivo
[5] = Drug excretion in F344/DuCrlCrlj rat feces at 1 mg/kg, iv administered via tail vein measured during 0 to 168 hrs by liquid scintillation counting; format: ADME, organism-based; design: dose 1 mg/kg, dosed compound name [14C]Rivoglitazone, route intravenous; details: in vivo
Rattus norvegicus [6] = assay: Total drug excretion in F344/DuCrlCrlj rat at 1 mg/kg, iv administered via tail vein measured during 0 to 168 hrs by liquid scintillation counting; format: ADME, organism-based; design: dose 1 mg/kg, dosed compound name [14C]Rivoglitazone, route intravenous; details: in vivo
[7] = Drug excretion in F344/DuCrlCrlj rat urine at 1 mg/kg, po administered via gavage measured during 0 to 48 hrs by liquid scintillation counting; format: ADME, organism-based; design: dose 1 mg/kg, dosed compound name [14C]Rivoglitazone, route oral; details: in vivo
[8] = Drug excretion in F344/DuCrlCrlj rat feces at 1 mg/kg, po administered via gavage measured during 0 to 48 hrs by liquid scintillation counting; format: ADME, organism-based; design: dose 1 mg/kg, dosed compound name [14C]Rivoglitazone, route oral; details: in vivo
[9] = Drug excretion in bile duct-cannulated rat feces at 0.5 mg/kg, iv administered via tail vein measured during 0 to 48 hrs by liquid scintillation counting; format: ADME, organism-based; design: dose 0.5 mg/kg, dosed compound name [14C]Rivoglitazone, route intravenous; details: in vivo
[10] = Drug excretion in bile duct-cannulated rat bile at 0.5 mg/kg, iv administered via tail vein measured during 0 to 48 hrs by liquid scintillation counting; format: ADME, organism-based; design: dose 0.5 mg/kg, dosed compound name [14C]Rivoglitazone, route intravenous; details: in vivo
Rattus norvegicus [11] = assay: Drug excretion in bile duct-cannulated rat cage wash at 0.5 mg/kg, iv administered via tail vein measured during 0 to 48 hrs by liquid scintillation counting; format: ADME, organism-based; design: dose 0.5 mg/kg, dosed compound name [14C]Rivoglitazone, route intravenous; details: in vivo
Rattus norvegicus [12] = assay: Total drug excretion in bile duct-cannulated rat at 0.5 mg/kg, iv administered via tail vein measured during 0 to 48 hrs by liquid scintillation counting; format: ADME, organism-based; design: dose 0.5 mg/kg, dosed compound name [14C]Rivoglitazone, route intravenous; details: in vivo
[13] = Drug excretion in bile duct-cannulated rat urine at 0.5 mg/kg, po administered via gavage measured during 0 to 48 hrs by liquid scintillation counting; format: ADME, organism-based; design: dose 0.5 mg/kg, dosed compound name [14C]Rivoglitazone, route oral; details: in vivo
[14] = Drug excretion in bile duct-cannulated rat feces at 0.5 mg/kg, po administered via gavage measured during 0 to 48 hrs by liquid scintillation counting; format: ADME, organism-based; design: dose 0.5 mg/kg, dosed compound name [14C]Rivoglitazone, route oral; details: in vivo
[15] = Drug excretion in bile duct-cannulated rat bile at 0.5 mg/kg, po administered via gavage measured during 0 to 48 hrs by liquid scintillation counting; format: ADME, organism-based; design: dose 0.5 mg/kg, dosed compound name [14C]Rivoglitazone, route oral; details: in vivo
Rattus norvegicus [16] = assay: Drug excretion in bile duct-cannulated rat cage wash at 0.5 mg/kg, po administered via gavage measured during 0 to 48 hrs by liquid scintillation counting; format: ADME, organism-based; design: dose 0.5 mg/kg, dosed compound name [14C]Rivoglitazone, route oral; details: in vivo
Rattus norvegicus [17] = assay: Total drug excretion in bile duct-cannulated rat at 0.5 mg/kg, po administered via gavage measured during 0 to 48 hrs by liquid scintillation counting; format: ADME, organism-based; design: dose 0.5 mg/kg, dosed compound name [14C]Rivoglitazone, route oral; details: in vivo
[18] = Drug excretion in monkey urine at 1 mg/kg, iv administered via tail vein measured during 0 to 48 hrs by liquid scintillation counting; format: ADME, organism-based, Macaca mulatta; design: dose 1 mg/kg, dosed compound name [14C]Rivoglitazone, route intravenous; details: rhesus monkey, in vivo
[19] = Drug excretion in monkey feces at 1 mg/kg, iv administered […] measured during 0 to 48 hrs by liquid scintillation counting; format: ADME, organism-based, Macaca mulatta; design: dose 1 mg/kg, dosed compound name [14C]Rivoglitazone, route intravenous; details: rhesus monkey, in vivo
Rhesus monkey [20] = assay: Total drug excretion in monkey at 1 mg/kg, iv administered via tail vein measured during 0 to 48 hrs by liquid scintillation counting; format: ADME, organism-based, Macaca mulatta; design: dose 1 mg/kg, dosed compound name [14C]Rivoglitazone, route intravenous; details: in vivo
[21] = Drug excretion in monkey urine at 1 mg/kg, iv administered via tail vein measured during 0 to 168 hrs by liquid scintillation counting; format: ADME, organism-based, Macaca mulatta; design: dose 1 mg/kg, dosed compound name [14C]Rivoglitazone, route intravenous; details: rhesus monkey, in vivo
[22] = Drug excretion in monkey feces at 1 mg/kg, iv administered […] measured during 0 to 168 hrs by liquid scintillation counting; format: ADME, organism-based, Macaca mulatta; design: dose 1 mg/kg, dosed compound name [14C]Rivoglitazone, route intravenous; details: rhesus monkey, in vivo
Rhesus monkey [23] = assay: Drug excretion in monkey cage wash at 1 mg/kg, iv administered […] measured during 0 to 168 hrs by liquid scintillation counting; format: ADME, organism-based, Macaca mulatta; design: dose 1 mg/kg, dosed compound name [14C]Rivoglitazone, route intravenous; details: in vivo
Rhesus monkey [24] = assay: Total drug excretion in monkey at 1 mg/kg, iv administered via tail vein measured during 0 to 168 hrs by liquid scintillation counting; format: ADME, organism-based, Macaca mulatta; design: dose 1 mg/kg, dosed compound name [14C]Rivoglitazone, route intravenous; details: in vivo
[25] = Drug excretion in monkey urine at 1 mg/kg, po administered via gavage measured during 0 to 48 hrs by liquid scintillation counting; format: ADME, organism-based, Macaca mulatta; design: dose 1 mg/kg, dosed compound name [14C]Rivoglitazone, route oral; details: rhesus monkey, in vivo
[26] = Drug excretion in monkey feces at 1 mg/kg, po administered via gavage measured during 0 to 48 hrs by liquid scintillation counting; format: ADME, organism-based, Macaca mulatta; design: dose 1 mg/kg, dosed compound name [14C]Rivoglitazone, route oral; details: rhesus monkey, in vivo
Rhesus monkey [27] = assay: Total drug excretion in monkey at 1 mg/kg, po administered via gavage measured during 0 to 48 hrs by liquid scintillation counting; format: ADME, organism-based, Macaca mulatta; design: dose 1 mg/kg, dosed compound name [14C]Rivoglitazone, route oral; details: in vivo
[28] = Drug excretion in monkey urine at 1 mg/kg, po administered via gavage measured during 0 to 168 hrs by liquid scintillation counting; format: ADME, organism-based, Macaca mulatta; design: dose 1 mg/kg, dosed compound name [14C]Rivoglitazone, route oral; details: rhesus monkey, in vivo
[29] = Drug excretion in monkey feces at 1 mg/kg, po administered via gavage measured during 0 to 168 hrs by liquid scintillation counting; format: ADME, organism-based, Macaca mulatta; design: dose 1 mg/kg, dosed compound name [14C]Rivoglitazone, route oral; details: rhesus monkey, in vivo
Rhesus monkey [30] = assay: Drug excretion in monkey cage wash at 1 mg/kg, po administered via gavage measured during 0 to 168 hrs by liquid scintillation counting; format: ADME, organism-based, Macaca mulatta; design: dose 1 mg/kg, dosed compound name [14C]Rivoglitazone, route oral; details: in vivo
Rhesus monkey [31] = assay: Total drug excretion in monkey at 1 mg/kg, po administered via gavage measured during 0 to 168 hrs by liquid scintillation counting; format: ADME, organism-based, Macaca mulatta; design: dose 1 mg/kg, dosed compound name [14C]Rivoglitazone, route oral; details: in vivo
Rattus norvegicus [32] = assay: Total drug excretion in F344/DuCrlCrlj rat at 1 mg/kg, po administered via gavage measured during 0 to 48 hrs by liquid scintillation counting; format: ADME, organism-based; design: dose 1 mg/kg, dosed compound name [14C]Rivoglitazone, route oral; details: in vivo
[33] = Drug excretion in F344/DuCrlCrlj rat urine at 1 mg/kg, po administered via gavage measured during 0 to 168 hrs by liquid scintillation counting; format: ADME, organism-based; design: dose 1 mg/kg, dosed compound name [14C]Rivoglitazone, route oral; details: in vivo
[34] = Drug excretion in F344/DuCrlCrlj rat feces at 1 mg/kg, po administered via gavage measured during 0 to 168 hrs by liquid scintillation counting; format: ADME, organism-based; design: dose 1 mg/kg, dosed compound name [14C]Rivoglitazone, route oral; details: in vivo
Rattus norvegicus [35] = assay: Total drug excretion in F344/DuCrlCrlj rat at 1 mg/kg, po administered via gavage measured during 0 to 168 hrs by liquid scintillation counting; format: ADME, organism-based; design: dose 1 mg/kg, dosed compound name [14C]Rivoglitazone, route oral; details: in vivo
[36] = Drug excretion in bile duct-cannulated rat urine at 0.5 mg/kg, iv administered via tail vein measured during 0 to 48 hrs by liquid scintillation counting; format: ADME, organism-based; design: dose 0.5 mg/kg, dosed compound name [14C]Rivoglitazone, route intravenous; details: in vivo

COc1ccc2nc(COc3ccc(C[14CH]4SC(=O)NC4=O)cc3)n(C)c2c1 (racemic)
Radiolabel recovery [1]: 25.5% | Radiolabel recovery [2]: 74.2% | Radiolabel recovery (Rattus norvegicus [3]): 99.7% | Radiolabel recovery [4]: 25.6% | Radiolabel recovery [5]: 75.4% | Radiolabel recovery (Rattus norvegicus [6]): 101% | Radiolabel recovery [7]: 18% | Radiolabel recovery [8]: 81.1% | Radiolabel recovery [9]: 7% | Radiolabel recovery [10]: 55.4% | Radiolabel recovery (Rattus norvegicus [11]): 5.7% | Radiolabel recovery (Rattus norvegicus [12]): 86.5% | Radiolabel recovery [13]: 19.9% | Radiolabel recovery [14]: 19.1% | Radiolabel recovery [15]: 37.2% | Radiolabel recovery (Rattus norvegicus [16]): 4.8% | Radiolabel recovery (Rattus norvegicus [17]): 81% | Radiolabel recovery [18]: 39.4% | Radiolabel recovery [19]: 10.3% | Radiolabel recovery (Rhesus monkey [20]): 49.7% | Radiolabel recovery [21]: 47.4% | Radiolabel recovery [22]: 38.4% | Radiolabel recovery (Rhesus monkey [23]): 0.1% | Radiolabel recovery (Rhesus monkey [24]): 86% | Radiolabel recovery [25]: 29.7% | Radiolabel recovery [26]: 24.6% | Radiolabel recovery (Rhesus monkey [27]): 54.3% | Radiolabel recovery [28]: 36.7% | Radiolabel recovery [29]: 53% | Radiolabel recovery (Rhesus monkey [30]): 0.2% | Radiolabel recovery (Rhesus monkey [31]): 90% | Radiolabel recovery (Rattus norvegicus [32]): 99.1% | Radiolabel recovery [33]: 18.3% | Radiolabel recovery [34]: 82% | Radiolabel recovery (Rattus norvegicus [35]): 100% | Radiolabel recovery [36]: 18.4%

— ChEMBL document CHEMBL3525983, “Pharmacokinetics, metabolism, and disposition of rivoglitazone, a novel peroxisome proliferator-activated receptor γ agonist, in rats and monkeys” (Drug Metab Dispos, 2011)
